Among the data in US9938301B2, “Dihydropyrimido fused ring derivative as HBV inhibitor” (QILU PHARMACEUTICAL CO., LTD., priority 2014, dated 2018) are EC50 values, retold here.

SMILES strings stand for the structures. Read-outs that look alike come from different tables or passages of the source. Some results are limits rather than exact numbers.

The test system of the assay is HBV DNA in HepG2.2.15 cells. Kind of assay: HBV in vitro dot-blot hybridization test. Type of assay: cell-based, Hepatitis B virus. On the procedure: • 1. Purpose of the test: • The content of HBV DNA in HepG2.2.15 cells was detected by dot-blot hybridization test to evaluate an inhibitory action of the compound on HBV with an EC50 value as an indicator. • 2. Experimental materials: • 2.1 Cell lines: HepG2.2.15 Cells • HepG2.2.15 cell culture media (DMEM/F12, Invitrogen-11330057; 10% serum Invitrogen-10099141; 100 units/mL Penicillin and 10 μg/mL Streptomycin, Invitrogen-15140122; 1% non-essential amino acid, Invitrogen-11140076; 2 mM L-GLUTAMINE, Invitrogen-25030081; 300 µg/ml Geneticin, Invitrogen-10131027 • 2.2 Reagents: • Trypsin (I Invitrogen-25300062) • DPBS (Hyclone-SH30028.01B) • DMSO (Sigma-D2650-100ML) • 96-well cell-culture plate (Corning-3599) • CO2 incubator (HERA-CELL-240) • 20×SSC (Bio-serve Co. Ltd) • Tris-HCl (Aldirch-154563-1KG) • NaOH (Sinopharm 10019718) • NaCl (Sinopharm 10019308) • Hybridization solution (Major BioTech Co. Ltd, IMMUNE GOLD-HYB-500) • DIG Wash and Block Buffer set (Roche-11585762001) • Anti-digoxigenin-AP, Fab fragments from sheep (Roche-11093274910) • 2.3 Materials and Instruments: • Positively-Charged Nylon Membrane (GE-RPN2250B) • Transfer Membrane Instrument (Bio-Rad, 170-6545) • Hybridization Oven (HL-2000 Hybrilinker) • 3. Testing steps and Methods: • 3.1 HepG2.2.15 cells (4×10^4 cells/well) were planted into a 96-well plate, and at 37° C., 5% CO2 cultured overnight. • 3.2 On Day 2, the compounds were diluted in totally 6 concentrations with a dilution gradient of five times. The compounds at different concentrations were added into the culture wells in duplicate. The final concentration of DMSO in the culture media was 1%. 1 μM GLS4 was used as 100% inhibition control; 1% DMSO as 0% inhibition control. • 3.3 On Day 5, replacing with the fresh culture media containing the compound was performed. • 3.4 On Day 8 and Day 9, the culture media in the culture wells was removed, and the cells were harvested for dot-blot hybridization. • The lysate was added into a culture well, and at 37° C. incubating for half an hour to disintegrate cells; the supernatant was obtained by centrifugation and transferred into a new microplate; a denaturation solution was added, after sufficient mixing the denatured sample was transferred and imprinted onto a Nylon membrane, the nucleic acid was fixed onto the membrane by UV cross-linking. • Pre-hybridization: the membrane was incubated at 60° C. in a hybridization solution for 1 hour. • Hybridization: heating the denatured digoxin-labelled HBV DNA probe and incubating at 60° C. overnight. • Membrane Washing: performing high strigency washing twice, low strigency washing for 3 times. • Blocking: incubating the membrane at room temperature in a blocking solution for 30-60 minutes. • Hybridization: diluting the Antibody Solution with the blocking solution, in which the membrane was placed and incubated at room temperature for 30-60 minutes. • Developing: washing the membrane in a Detection Buffer for 5 minutes, followed by adding a developing solution, pressing and exposing. • The photos was saved in tiff format, and a gray value of the dot was quantified with quantity one software. • 3.5 Data Analysis: • 3.5.1 The inhibition percentage was calculated: % Inh.=[1−(sample dot gray value−1 μM GLS4 dot gray value 1)/(DMSO control dot gray value−1 μM GLS4 dot gray value 1)]×100. • 3.5.2 Calculating EC50: the concentration of the compound for 50% inhibition of HBV (EC50) was calculated by using GraphPad Prism Software. • 4.

The mark [1] stands for this setting: Hepatitis B virus, HepG2.2.15, dot-blot hybridization assay, read-out: Concentration for 50% inhibition of HBV (EC50)value.
[2] abbreviates: Hepatitis B virus, HepG2.2.15, summary list of target compounds, Examples 1-165 (same as Table 2), read-out: BIOACTIVITY (inhibitory actions on HBV DNA, EC50).
Where [3] appears, read: summary list of target compounds, Examples 1-165 (same as Table 2), read-out: BIOACTIVITY (inhibitory actions on HBV DNA, EC50).

Take `CCOC(=O)C1=C2CCCN2C(c2nc(C)cs2)=NC1c1ccc(F)cc1Cl` (racemic) [Example 79]: the EC50 by setting is: under setting [1], 1000 to 5000 nM; under setting [2], 1000 to 5000 nM.

On to `CCOC(=O)C1=C2CCOC(=O)N2C(c2nccs2)=NC1c1ccc(F)cc1Br` (racemic) [Example 107], for which the EC50 is, setting by setting: under setting [1], 100 to 500 nM; under setting [2], 100 to 500 nM.

Regarding `O=C(OCC(F)F)C1=C2CCCN2C(c2nccs2)=NC1c1ccc(F)cc1Br` (racemic) [Example 81], the EC50 lay within 1000 to 5000 nM under setting [1] and 1000 to 5000 nM under setting [2].

Turning to `CCOC(=O)C1=C2CC(NS(=O)(=O)NC)CN2C(c2nccs2)=N[C@H]1c1ccc(F)cc1Br` (mixture of isomers) [Example 54], the EC50 was < 100 nM under setting [1] and < 100 nM under setting [2].

Regarding `CCOC(=O)C1=C2C[C@@H](C#N)CN2C(c2nccs2)=NC1c1ccc(F)cc1Br` (mixture of isomers) [Example 27], the EC50 fell in the range of 100 to 500 nM (dot-blot hybridization assay, read-out: Concentration for 50% inhibition of HBV (EC50)value) and 100 to 500 nM under setting [3].

As for `CCOC(=O)C1=C2C[C@H](NS(=O)(=O)C(C)C)CN2C(c2nccs2)=N[C@H]1c1ccc(F)cc1Br` [Example 117], the EC50 was < 100 nM under setting [1] and < 100 nM under setting [2].

Consider `CCOC(=O)C1=C2C[C@H](NC(=O)OC)CN2C(c2nccs2)=N[C@H]1c1ccc(F)cc1Br` [Example 44], for which the EC50 reads like this: under setting [1], < 100 nM; under setting [2], < 100 nM.

Take `CCOC(=O)C1=C2CCCN2C(c2nccs2)=NC1c1ccc(F)c(F)c1` (racemic) [Example 69]: the EC50 under setting [1] lay in the range of 100 to 500 nM and the EC50 under setting [2] lay within 100 to 500 nM.

For the molecule `CCOC(=O)C1=C2C[C@@H](CN3CCOCC3)CN2C(c2nccs2)=NC1c1ccc(F)cc1Br` (mixture of isomers) [Example 18], under setting [3], the EC50 lay within 1000 to 5000 nM.

Take `CCOC(=O)C1=C2CN(S(=O)(=O)NC)CCN2C(c2nccs2)=N[C@H]1c1ccc(F)cc1Br` [Example 84]: the EC50 lay within 100 to 500 nM under setting [1] and 100 to 500 nM under setting [2].

For `COC(=O)C1=C2C[C@H](NS(C)(=O)=O)CN2C(c2nccs2)=N[C@H]1c1ccc(F)c(Cl)c1` [Example 164], the EC50 runs as follows: under setting [1], 1000 to 5000 nM; under setting [2], 1000 to 5000 nM.

Take `CCOC(=O)C1=C2CC(NC(=O)OC(C)C)CN2C(c2nccs2)=N[C@H]1c1ccc(F)cc1Br` (stereo partly drawn) [Example 46]: the EC50 fell in the range of 100 to 500 nM under setting [1] and 100 to 500 nM under setting [2].

As for `CCOC(=O)C1=C2CN(Cc3cc(C)on3)CCN2C(c2nccs2)=N[C@H]1c1ccc(F)cc1Br` [Example 94], the EC50 under setting [1] was in the range of 1000 to 5000 nM and the EC50 under setting [2] was in the range of 1000 to 5000 nM.

For `CCOC(=O)C1=C2CCCC(=O)N2C(c2nccs2)=N[C@H]1c1ccc(F)cc1Br` (racemic) [Example 108], the EC50 under setting [1] is 1000 to 5000 nM and the EC50 under setting [2] is 1000 to 5000 nM.

For `CCOC(=O)C1=C2CN(C(=O)C(C)C)CCN2C(c2nccs2)=N[C@H]1c1ccc(F)cc1Br` [Example 92], the EC50 is, setting by setting: under setting [1], < 100 nM; under setting [2], < 100 nM.

`CCOC(=O)C1=C2CN(C(C)=O)CCN2C(c2nccs2)=NC1c1ccc(F)cc1Br` (racemic) [Example 86]: the EC50 by setting is: under setting [1], 500 to 1000 nM; under setting [2], 500 to 1000 nM.

Take `CCOC(=O)C1=C2CCCN2C(c2nccs2)=NC1(C)c1ccc(F)cc1` (racemic) [Example 75]: the EC50 was in the range of 1000 to 5000 nM under setting [1] and 1000 to 5000 nM under setting [2].

In the case of `CCOC(=O)C1=C2C[C@@H](c3nnn[nH]3)CN2C(c2nccs2)=N[C@H]1c1ccc(F)cc1Br` [Example 33], the EC50 runs as follows: under setting [1], 1000 to 5000 nM; under setting [2], 1000 to 5000 nM.

On to `CCOC(=O)C1=C2C[C@@H](N3CCOC3=O)CN2C(c2nccs2)=N[C@H]1c1ccc(F)cc1Br` [Example 65], for which the EC50 lay in the range of 100 to 500 nM under setting [1] and 100 to 500 nM under setting [2].

As for `CCOC(=O)C1=C2CN(Cc3ccc(OC)cc3)C[C@@H](C(=O)OC)N2C(c2nccs2)=N[C@H]1c1ccc(F)cc1Br` [Example 115], the EC50 fell in the range of 100 to 500 nM under setting [1] and 100 to 500 nM under setting [2].

As to `CCOC(=O)C1=C2CCC(=O)N2C(c2nccs2)=NC1c1ccc(F)cc1Br` (racemic) [Example 68], the EC50 was 1000 to 5000 nM under setting [1] and 1000 to 5000 nM under setting [2].

Turning to `CCOC(=O)C1=C2C[C@H](N(C)S(C)(=O)=O)CN2C(c2nccs2)=N[C@H]1c1ccc(F)cc1Cl` [Example 157], the EC50 under setting [1] is < 100 nM and the EC50 under setting [2] was < 100 nM.

Take `CCOC(=O)C1=C2C[C@@H](CC(=O)O)CN2C(c2nccs2)=N[C@H]1c1ccc(F)cc1Br` [Example 13]: the EC50 reads like this: under setting [1], 100 to 500 nM; under setting [2], 100 to 500 nM.

For the molecule `CCOC(=O)C1=C2C[C@@H](CNC(C)=O)CN2C(c2nccs2)=N[C@H]1c1ccc(F)cc1Br` [Example 119], the EC50 is, setting by setting: under setting [1], < 100 nM; under setting [2], < 100 nM.

For `COCOC(=O)C1=C2CCCN2C(c2nccs2)=NC1c1ccc(F)cc1Br` (racemic) [Example 80], the EC50 was in the range of 1000 to 5000 nM under setting [1] and 1000 to 5000 nM under setting [2].

Regarding `CCOC(=O)C1=C2C[C@@H](C(N)=O)CN2C(c2nccs2)=N[C@H]1c1ccc(F)cc1Cl` [Example 30], the EC50 is, setting by setting: under setting [1], 100 to 500 nM; under setting [2], 100 to 500 nM.

As for `CCOC(=O)C1=C2CCCN2C(c2nccs2)=NC1c1ccc(F)cc1Cl` (racemic) [Example 1], the EC50 is, setting by setting: under setting [1], 100 to 500 nM; under setting [2], 100 to 500 nM.

With `CCOC(=O)C1=C2CN(CC(=O)O)CCN2C(c2nccs2)=N[C@H]1c1ccc(F)cc1Br` [Example 99], the EC50 is, setting by setting: under setting [1], 1000 to 5000 nM; under setting [2], 1000 to 5000 nM.

As for `CCOC(=O)C1=C2CN(C#N)CCN2C(c2nccs2)=N[C@H]1c1ccc(F)cc1Br` [Example 101], the EC50 was in the range of 500 to 1000 nM under setting [1] and 500 to 1000 nM under setting [2].

As for `CC(C)OC(=O)C1=C2C[C@H](NS(C)(=O)=O)CN2C(c2nccs2)=N[C@H]1c1ccc(F)cc1Cl` [Example 152], the EC50 lay within 100 to 500 nM under setting [1] and 100 to 500 nM under setting [2].

As to `CCOC(=O)C1=C2CN(S(C)(=O)=O)CCN2C(c2nccs2)=NC1c1ccc(F)cc1Br` (racemic) [Example 87], the EC50 by setting is: under setting [1], 500 to 1000 nM; under setting [2], 500 to 1000 nM.

For the molecule `CCOC(=O)C1=C2C[C@H](NS(=O)(=O)CC(=O)O)CN2C(c2nccs2)=N[C@H]1c1ccc(F)cc1Cl` [Example 143], the EC50 is, setting by setting: under setting [1], 100 to 500 nM; under setting [2], 100 to 500 nM.

For `CCOC(=O)C1=C2C[C@H](NS(=O)(=O)C(F)F)CN2C(c2nccs2)=N[C@H]1c1ccc(F)cc1Br` [Example 124], the EC50 under setting [1] was < 100 nM and the EC50 under setting [2] is < 100 nM.

On to `CCOC(=O)C1=C2C[C@H](C(N)=O)CN2C(c2nccs2)=N[C@H]1c1ccc(F)cc1Cl` [Example 31], for which the EC50 lay in the range of 100 to 500 nM under setting [1] and 100 to 500 nM under setting [2].

As to `CCOC(=O)C1=C2CN(C(=O)OC)CCN2C(c2nccs2)=N[C@H]1c1ccc(F)cc1Br` [Example 85], the EC50 under setting [1] lay in the range of 100 to 500 nM and the EC50 under setting [2] fell in the range of 100 to 500 nM.

On to `CCOC(=O)C1=C2C[C@@H](N(C)S(C)(=O)=O)CN2C(c2nccs2)=N[C@H]1c1ccc(F)cc1Br` [Example 127], for which the EC50 by setting is: under setting [1], < 100 nM; under setting [2], < 100 nM.

Consider `CCOC(=O)C1=C2CN(Cc3ccc(OC)cc3)S(=O)(=O)CN2C(c2nccs2)=N[C@H]1c1ccc(F)cc1Br` [Example 134], for which the EC50 was in the range of 1000 to 5000 nM under setting [1] and 1000 to 5000 nM under setting [2].

Take `CCOC(=O)C1=C2C[C@H](NS(C)(=O)=O)CN2C(c2nccs2)=N[C@H]1c1ccc(F)cc1Br` [Example 59]: the EC50 reads like this: under setting [1], < 100 nM; under setting [2], < 100 nM.
